Assay results: US20210346357A1 (priority 2020, published 2021)
Like-named read-outs stand apart in the source and are kept apart here.

How the values were obtained:
[1] = tested on: IL-13-induced STAT6 phosphorylation in the human bronchial epithelial cell line BEAS-2B; assay: IL-13-induced STAT6 phosphorylation in BEAS-2B cells; type: cell-based
[2] = target: Abl1 (Homo sapiens, UniProt P00519); assay: Biochemical ABL1 kinase assay (33P-ATP); details: at 1 μM; ATP 10 μM
[3] = tested on: TSLP-evoked TARC release in human peripheral blood mononuclear cells; assay: Inhibition of TSLP-evoked TARC release in human PBMC; type: cell-based; details: PBMC from 3 to 5 donors, TSLP 10 ng/mL, 48 hours, read-out: pIC50 ± st. dev., inhibition of TSLP-evoked TARC release (converted)
[4] = Human plasma protein binding; type: in vitro ADME
[5] = Phase 1 SAD/MAD study of inhaled compound 1 in healthy subjects; type: in vivo, human; details: for AUC(0-t): read-out: AUC0-24
Procedure: This is a phase 1, 2-part, double-blind, randomized, placebo controlled, sponsor-open, SAD (Part A) and MAD (Part B). Subjects will participate in only 1 cohort in only 1 study part.
Part A (SAD): three (3) cohorts of 8 healthy subjects (6 active and 2 placebo). In each cohort, subjects received a single inhaled dose of compound 1 or placebo. […] Cardiodynamic monitoring via Holter monitors was conducted pre-dose and for at least 24 hours following dosing on Day 1 in each cohort, with rest periods for cardiodynamic electrocardiogram (ECG) extractions time matched to the PK sampling time points.
Part B (MAD): three (3) cohorts of 10 healthy subjects (8 active and 2 placebo). In each cohort, subjects received inhaled doses once daily (QD) for 7 days. […] Blood samples for PK assessment were also collected pre-dose on the morning of Days 3 through 6. Cardiodynamic monitoring via Holter monitors may be conducted pre-dose on Day 1 and pre-dose and for at least 24 hours following dosing on the morning of Day 7 in each cohort with rest periods for cardiodynamic ECG extractions time matched to the PK sampling time points.
Parts A and B: safety (i.e., physical examinations, vital signs, 12-lead safety ECGs, spirometry, clinical laboratory tests, and adverse events [AEs]) were assessed throughout the study; blood and urine samples were collected for safety assessments. All subjects who received at least one dose of study drug (including subjects who terminated the study early) returned to the CRU 7 (±2) days after the last study drug administration for follow-up procedures, and to determine if any AEs have occurred since the last study visit.
Part B: subjects received inhaled doses QD for 7 days using a nebulizer device.
Morning doses on Days 1 and 7 were administered under fasting conditions due to cardiodynamic monitoring. On all other times, doses were administered at least 30 minutes after completion of a meal or snack. Hour 0 was defined as the beginning of inhalation in each morning dose administration.
AUC0-24, AUC0-∞, Cmax and t1/2 are presented as arithmetic mean (standard deviation). Tmax is presented as median (minimum, maximum).

[6] = tested on: IL-13 induced pSTAT6 in lung tissue; assay: Murine model of IL-13 induced pSTAT6 induction in lung tissue; type: in vivo; details: mouse lung, oral aspiration 1 mg/mL 50 μL, IL-13 challenge at 4 h; scale 0% to 100% inhibitory effect
Description: Assay 3: Murine (Mouse) Model of IL-13 induced pSTAT6 Induction in Lung Tissue
IL-13 is an important cytokine underlying the pathophysiology of asthma (Kudlacz et al. Eur. J. Pharmacol, 2008, 582,154-161). IL-13 binds to cell surface receptors activating members of the Janus family of kinases (JAK) which then phosphorylate STAT6 and subsequently activates further transcription pathways. In the described model, a dose of IL-13 was delivered locally into the lungs of mice to induce the phosphorylation of STAT6 (pSTAT6) which is then measured as the endpoint.
Adult Balb/c mice from Harlan were used in the assay. […] Animals were placed in lateral recumbency post dose and monitored for full recovery from anesthesia before being returned to their home cage. Four hours later, animals were once again briefly anesthetized and challenged with either vehicle or IL-13 (0.03 μg total dose delivered, 50 μL total volume) via oral aspiration before being monitored for recovery from anesthesia and returned to their home cage. […] Plasma and lung levels of test compound were determined by LC-MS analysis against analytical standards constructed into a standard curve in the test matrix. A lung to plasma ratio was determined as the ratio of the lung concentration in ng/g to the plasma concentration in ng/mL at 5 hours. […]

[7] = healthy subjects, 1 mg to 10 mg
[8] = human, plasma, inhaled or intranasal, 1 mg, healthy subjects, inhaled 1 mg QD, Day 1, mean
[9] = human, plasma, inhaled or intranasal, 1 mg, healthy subjects, inhaled 1 mg QD, Day 7, mean
[10] = human, plasma, inhaled or intranasal, 1 mg, healthy subjects, single inhaled dose 1 mg, mean
[11] = human, plasma, inhaled or intranasal, 3 mg, healthy subjects, inhaled 3 mg QD, Day 1, mean
[12] = human, plasma, inhaled or intranasal, 3 mg, healthy subjects, inhaled 3 mg QD, Day 7, mean
[13] = human, plasma, inhaled or intranasal, 3 mg, healthy subjects, single inhaled dose 3 mg, mean
[14] = human, plasma, inhaled or intranasal, 10 mg, healthy subjects, inhaled 10 mg QD, Day 1, mean
[15] = human, plasma, inhaled or intranasal, 10 mg, healthy subjects, inhaled 10 mg QD, Day 7, mean
[16] = human, plasma, inhaled or intranasal, 10 mg, healthy subjects, single inhaled dose 10 mg, mean

Chain of Abl1 (P00519 whole entry): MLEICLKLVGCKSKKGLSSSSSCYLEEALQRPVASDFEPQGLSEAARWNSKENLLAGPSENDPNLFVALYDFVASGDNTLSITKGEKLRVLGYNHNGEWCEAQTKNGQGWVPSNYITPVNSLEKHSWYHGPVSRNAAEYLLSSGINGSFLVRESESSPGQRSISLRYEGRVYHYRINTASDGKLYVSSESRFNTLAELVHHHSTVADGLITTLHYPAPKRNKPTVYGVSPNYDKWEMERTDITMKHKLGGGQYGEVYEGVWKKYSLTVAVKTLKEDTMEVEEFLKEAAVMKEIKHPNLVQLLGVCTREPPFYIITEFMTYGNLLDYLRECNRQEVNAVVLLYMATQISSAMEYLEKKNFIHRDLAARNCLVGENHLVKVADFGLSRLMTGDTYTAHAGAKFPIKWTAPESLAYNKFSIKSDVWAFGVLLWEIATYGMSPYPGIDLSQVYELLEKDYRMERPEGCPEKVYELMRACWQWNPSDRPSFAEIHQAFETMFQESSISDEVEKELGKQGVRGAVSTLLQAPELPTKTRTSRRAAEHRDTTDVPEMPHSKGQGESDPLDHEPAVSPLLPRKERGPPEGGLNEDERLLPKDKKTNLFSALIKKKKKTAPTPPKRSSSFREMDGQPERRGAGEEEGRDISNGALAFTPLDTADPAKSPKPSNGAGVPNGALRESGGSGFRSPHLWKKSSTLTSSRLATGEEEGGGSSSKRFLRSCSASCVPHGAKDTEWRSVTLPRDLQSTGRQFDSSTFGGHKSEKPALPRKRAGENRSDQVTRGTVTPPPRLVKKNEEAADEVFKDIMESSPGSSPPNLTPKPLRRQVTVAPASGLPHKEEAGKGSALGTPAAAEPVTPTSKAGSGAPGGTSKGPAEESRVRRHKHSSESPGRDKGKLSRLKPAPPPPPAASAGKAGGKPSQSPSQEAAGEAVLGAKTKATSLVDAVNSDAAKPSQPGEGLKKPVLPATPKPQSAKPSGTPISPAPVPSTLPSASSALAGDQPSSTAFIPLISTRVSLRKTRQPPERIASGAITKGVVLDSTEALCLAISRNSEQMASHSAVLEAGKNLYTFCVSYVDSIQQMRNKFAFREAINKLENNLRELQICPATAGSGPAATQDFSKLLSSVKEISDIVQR

CCc1cc(O)ccc1-c1ccc2c(-c3nc4c([nH]3)CN(C(C)C)[C@H](C(=O)N3CC(N(C)C)C3)C4)n[nH]c2c1 [Compound 1, (S)-(3-(dimethylamino)azetidin-1-yl)(2-(6-(2-ethyl-4-hydroxyphenyl)-1H-indazol-3-yl)-5-isopropyl-4,5,6,7-tetrahydro-3H-imidazo[4,5-c]pyridin-6-yl)methanone]
IC50 ([1]; JAK IC50 divided by the fraction unbound, read-out: binding-corrected JAK IC50): 0.362 µg/mL | IC50 ([1]; obtained from pIC50 of 7.9, based on a MW of 545.7, read-out: JAK IC50): 0.0069 µg/mL | IC50 ([1]; read-out: pIC50 for IL-13-induced STAT6 phosphorylation (converted)): 12.6 nM | inhibition at 1 µM [2]: 90% | IC50 [3]: 63.1 nM | fraction unbound [4]: 0.019 | human plasma protein binding [4]: 98.1% | changes in laboratory parameters, vital signs, or ECGs [5, 7]: no clinically relevant changes | severity of adverse events [5, 7]: mild or moderate | Tmax ([5]; healthy subjects, inhaled 1 mg QD, Day 1, median): 1.0 h | Tmax ([5]; healthy subjects, inhaled 1 mg QD, Day 7, median): 1.0 h | Tmax ([5]; healthy subjects, inhaled 3 mg QD, Day 1, median): 1.0 h | Tmax ([5]; healthy subjects, inhaled 3 mg QD, Day 7, median): 1.0 h | Tmax ([5]; healthy subjects, inhaled 10 mg QD, Day 1, median): 1.0 h | Tmax ([5]; healthy subjects, inhaled 10 mg QD, Day 7, median): 1.0 h | tolerability ([5]; healthy subjects, single daily doses 1 mg to 10 mg for 7 days): well tolerated | t1/2 ([5]; healthy subjects, single inhaled dose 3 mg, mean): 24.73 h | Cmax [5, 8]: 5.33 ng/mL | AUC(0-t) [5, 8]: 18.4 ng·h/mL | Cmax [5, 9]: 5.7 ng/mL | AUC(0-t) [5, 9]: 21.6 ng·h/mL | Cmax [5, 10]: 5.72 ng/mL | AUC(0-t) [5, 10]: 18.5 ng·h/mL | half-life ([5]; human, plasma, inhaled or intranasal, 1 mg, healthy subjects, single inhaled dose 1 mg, mean, read-out: t1/2 (converted)): 19.3 h | Cmax [5, 11]: 17.8 ng/mL | AUC(0-t) [5, 11]: 48.1 ng·h/mL | Cmax [5, 12]: 18.2 ng/mL | AUC(0-t) [5, 12]: 52.3 ng·h/mL | Cmax [5, 13]: 14.1 ng/mL | AUC(0-t) [5, 13]: 43.3 ng·h/mL | half-life ([5]; human, plasma, inhaled or intranasal, 3 mg, healthy subjects, single inhaled dose 3 mg, mean, read-out: t1/2 (converted)): 24.7 h | Cmax [5, 14]: 54.6 ng/mL | AUC(0-t) [5, 14]: 191 ng·h/mL | Cmax [5, 15]: 53.6 ng/mL | AUC(0-t) [5, 15]: 204 ng·h/mL | Cmax [5, 16]: 50.9 ng/mL | AUC(0-t) [5, 16]: 153 ng·h/mL | half-life ([5]; human, plasma, inhaled or intranasal, 10 mg, healthy subjects, single inhaled dose 10 mg, mean, read-out: t1/2 (converted)): 23.1 h | Tmax ([5]; human, plasma, inhaled or intranasal, healthy subjects, following single and multiple inhaled doses, read-out: Tmax): ~1 h | half-life ([5]; human, plasma, inhaled or intranasal, healthy subjects, following single and multiple inhaled doses, read-out: terminal elimination half-life (converted)): ~24 h | AUC(0-inf) ([5]; human, plasma, inhaled or intranasal, healthy subjects, single inhaled dose 1 mg, mean): 20.7 ng·h/mL | Tmax ([5]; human, plasma, inhaled or intranasal, healthy subjects, single inhaled dose 1 mg, median, read-out: Tmax): 1 h | AUC(0-inf) ([5]; human, plasma, inhaled or intranasal, healthy subjects, single inhaled dose 3 mg, mean): 48.6 ng·h/mL | Tmax ([5]; human, plasma, inhaled or intranasal, healthy subjects, single inhaled dose 3 mg, median, read-out: Tmax): 1 h | AUC(0-inf) ([5]; human, plasma, inhaled or intranasal, healthy subjects, single inhaled dose 10 mg, mean): 169 ng·h/mL | Tmax ([5]; human, plasma, inhaled or intranasal, healthy subjects, single inhaled dose 10 mg, median, read-out: Tmax): 1 h | neutrophil and hemoglobin reductions, lipid changes ([5]; inhaled administration): not observed | pSTAT6 inhibition at 5 hours [6]: 75
